Data set [1] concerns epitope-specific T cells from PBMCs of healthy donors. Kind of data set: In vitro human IFN-γ ELISPOT assay of epitope-specific T cells. Format: cell-based. The settings on record: HLA-A0201-positive PBMCs of healthy donors cultured with peptide 50 μM and IL-2 100 U/ml, day 20; T cells 5x10^5/ml; versus PBS-induced control; 3 independent experiments. As to the method: In order to measure the ability of epitope-specific T cells to produce IFN-γ, the ELISPOT assay was performed according to the instructions of the kit (Invitrogen, Carlsbad, CA, USA). Epitope-specific T cells(5x10^5/ml) were added to plates. An automated ELISPOT plate reader was used to quantify IFN-γ release by counting the number of spots present.

The subject of data set [2] is T2 cells. The data set can be described thus: In vitro cytotoxicity assay against T2 cells (LDH release). Format: cell-based. Particulars: peptide-pulsed T2 cells 1×10^5/well, effector:target 10:1, 20:1, 40:1, 37° C, 5 hours, 3 independent experiments. The protocol: T2 cell is (transporter associated with antigen processing, TAP) deficient cell line. When T2 cell is cultured with different epitopes, the HLA-A0201 molecule on surface of T2 cell will bind to different epitopes, the epitope-HLA-A0201 complex can be recognized by epitope-specific T cells and corresponding T2 cell will be lysed. In order to determine the cytotoxic activity of epitope-specific T cells, we measured LDH release based on the instructions of a non-radioactive cytotoxicity assay kit (Promega, USA). Epitope-specific T cells served as effector cells, and T2 cells loaded with or without each peptide served as target cells. The ratios of effector cells versus target cells were set to 10:1, 20:1 and 40:1. The effector cells were co-cultured with target cells (1×10^5/well) at 37° C for 5 hours, and LDH release was measured.

In data set [3] the test system is HepG2.2.15 cells. The data set can be described thus: In vitro cytotoxicity assay against HepG2.2.15 cells (LDH release). Format: cell-based. The settings on record: effector:target 20:1, 37° C, 12 hours, versus PBS-induced control, 3 independent experiments. The protocol:
In order to determine the antiviral abilities of epitope-specific T-cells, we detect the cytotoxicity of epitope-specific T cells against HepG2.2.15 cell. […] The ratios of epitope-specific T-cells versus HepG2.2.15 cells were set to 5:1, 10:1, 20:1. The effector cells and target cells were incubated together in 96-well plates at 37° C for 12 hours, and each well was added to total volume of 200 ul. The cytotoxicity activity of epitope-specific T-cells was evaluated based on LDH release using a non-radio-active cytotoxicity assay kit (Promega, US). The percentage of lysis was calculated as formula: (experimental release- target cell spontaneous release- effector cell spontaneous release)/(target cell maximum release- target cell spontaneous release).
(LDH in the medium is a marker of cell lysis.)

Data set [4] has as its system HBV-DNA. The data set can be described thus: HBV gene expression assay: HBV-DNA (real-time fluorescence quantitative PCR). The settings on record: co-culture with HepG2.2.15 cells, effector:target 10:1, 72 hours, supernatant quantitative PCR; versus PBS group; 3 independent experiments. It counts as cell-based, Hepatitis B virus.
Protocol: (§1) To validate the ability of epitopes to induce and stimulate the epitope-specific T cells, we used PBMCs from the blood of healthy donors. […] PBMCs were obtained through centrifugation at a Ficoll-Paque density gradient and suspended in RPMI-1640 medium supplemented with 10% fetal bovine serum (FBS), 100 U/ml penicillin and 100 μM streptomycin. PBMCs were stained by FITC-conjugated anti-HLA-A2 mAb and analyzed by flow cytometry. HLA-A0201-positive PBMCs were used for the expansion of epitope-specific T cells. PBMCs were cultured with each peptide (50 μM) and recombinant interleukin 2 (100 U/ml; Sigma, USA). Half of the culture medium was replaced with fresh RPMI-1640 medium every 3 or 4 days. […]
(§2) The antiviral abilities of epitopes were also determined by HBV gene expression assay. […] The HBsAg concentration was detected by enzyme-linked immunosorbent assay (ELISA) according to the manufacturer’s protocol (Shanghai Siic Kehua Biotech Co., Ltd.). And the HBV-DNA concentration was detected by real-time fluorescence quantitative PCR according to the manufacturer’s protocol (Yaneng Bioscience (Shenzhen) Co., Ltd.). […] The inhibition ratios of HBsAg and HBV-DNA were calculated as the formula: (1- experimental group/ control group)×100%.
For data set [5], the system named is HBsAg. The settings on record: co-culture with HepG2.2.15 cells, effector:target 10:1, 72 hours, supernatant ELISA; versus PBS group; 3 independent experiments. On the technique in general: An ELISA detects its analyte on a solid surface through an enzyme-linked reagent.
Protocol: as §1, §2
Data set [6] deals with T1, HLA-A0201 molecule (Homo sapiens, UniProt P04439, D140Y/D185E/D98H/E176V/E277Q/G131W/G231S/I119V/I121R/I166T/I218V/L300P/L318F/N151K/N90K/P208A/P217A/Q86G/Q94H/R138H/R169H/T345S).
T1 construct: endogenous in cells; host or cells: T2 cells (TAP-deficient human cell line)
The data set can be described thus: Peptide binding assay on T2 cells (HLA-A0201, flow cytometry). Particulars: T2 cells 1×10^6/well, peptide 100 μM, 18 hours, 37° C; FITC anti-HLA-A2 mAb BB7.2, flow cytometry; FI = (MFI peptide - background MFI)/background MFI; FI > 1 = high affinity; one representative of 3 independent experiments.
Protocol: To analyze the binding affinity between epitopes and the HLA-A0201 molecule, we performed a peptide binding assay according to our previous study [18]. Briefly, T2 cells (1×10^6/well) were incubated with peptides (100 μM) in 24-well plates for 18 hours at 37° C. T2 cells without peptides served as a background control. After being washed with phosphate buffer saline (PBS) three times, cells were stained with FITC-conjugated anti-HLA-A2 mAb BB7.2 and analyzed using a BD AccuriC6 flow cytometer (Becton Dickinson, Mountain View, CA, USA). The mean fluorescence index (MFI) was recorded [43]. We calculated the fluorescence index (FI) as follows: FI = (MFI with individual peptides - background MFI)/(background MFI).

“Also recorded” adds a separate entry of the source.

We go through 5 sequences from paper PMC8202855, “Identification of novel hepatitis B virus therapeutic vaccine candidates derived from polymerase protein” (Aging (Albany NY), 2021).

Take GLLGFAAPF: in data set [1], the “IFN-γ secretion of epitope-specific T cells (ELISPOT, in words)” value (“IFN-γ secretion” below) is “more IFN-γ secretion than was measured in control (P<0.05)”. Besides, in data set [2], the “Cytotoxic activity of epitope-specific T cells toward T2 cells (in words)” value is recorded as “higher cytotoxic activity toward T2 cells compared to T cells stimulated by other epitopes”. In addition, in data set [3], the “Cytotoxic activity of epitope-specific T cells against HepG2.2.15 cells (in words)” value is “higher cytotoxic activities against HepG2.2.15 cells compared to control group (P<0.05)”. Further, in data set [4], the “Elimination of HBV-DNA by epitope-specific T cells (in words)” value was “higher abilities to eliminate HBV-DNA compared to the PBS group (P<0.05)”. Besides, the “Inhibition of HBsAg expression by epitope-specific T cells (in words)” value in data set [5] is reported as “higher activities to inhibit the expression of HBsAg compared to the PBS group (P<0.05)”.
As for HLPDRVHFA, in data set [6], the “Fluorescence index (FI)” value is 0.2920.
Turning to HLYSHPIIL, the “IFN-γ secretion” value in data set [1] is given as “more IFN-γ secretion than was measured in control (P<0.05)”. The “Cytotoxic activity of epitope-specific T cells toward T2 cells (in words)” value in data set [2] is listed as “higher cytotoxic activity toward T2 cells compared to T cells stimulated by other epitopes”. Further, in data set [3], the “Cytotoxic activity of epitope-specific T cells against HepG2.2.15 cells (in words)” value was “higher cytotoxic activities against HepG2.2.15 cells compared to control group (P<0.05)”. Also, the “Elimination of HBV-DNA by epitope-specific T cells (in words)” value in data set [4] is given as “higher abilities to eliminate HBV-DNA compared to the PBS group (P<0.05)”. Further, the “Inhibition of HBsAg expression by epitope-specific T cells (in words)” value in data set [5] is listed as “higher activities to inhibit the expression of HBsAg compared to the PBS group (P<0.05)”.
Regarding RVTGGVFLV, the “IFN-γ secretion” value in data set [1] is listed as “lesser ability to induce epitope-specific T cells”. Besides, the “Cytotoxic activity of epitope-specific T cells toward T2 cells (in words)” value in data set [2] is on record as “lesser ability to induce epitope-specific T cells”. Further, in data set [3], the “Cytotoxic activity of epitope-specific T cells against HepG2.2.15 cells (in words)” value is “higher cytotoxic activities against HepG2.2.15 cells compared to control group (P<0.05); also recorded: obvious weaker than the other two epitopes”.
For the sequence YVIGSWGTL, the “Fluorescence index (FI)” value in data set [6] stood at 0.8953.
